From patent publication US4866039A, “Peptides containing the 18 to 23 residues of vasoactive intestinal peptide, and analogues” (Beecham Group p.l.c., priority 1985, dated 1989)
Residues, ends and D or L forms follow the SMILES beside them.

Test system: rat proximal duodenum
Experiment: acid disposal capacity of the rat proximal duodenum (anti-ulcer activity)
Format: in vivo
Conditions: anaesthetized male Wistar rats; input pH 2.5, second pass; 150nmol/kg/h i.v. infusion; significance P<0.05
Protocol: Method for estimating the acid disposal capacity of the rat proximal duodenum
Male Wistar rats, 180-250g bodyweight, fasted overnight, are anaesthetized with urethane (150mg/100g bodyweight i.m.). The trachea is cannulated, and a gastric cannula, 0.5cm i.d., 3cm long, is inserted into the non-glandular forestomach via a mid-line abdominal incision. The intragastric cannula is exteriorized via a stab wound in the body wall. A triple lumen catheter, 0.3cm o.d., is passed via the gastric cannula through the pylorus. The duodenum is ligated 1cm below the pylorus, and the pylorus ligated around the cannula, thus creating a 1cm proximal duodenal pouch excluding pancreatic and biliary secretions. The two ligatures enclosing the duodenal pouch are placed so as to avoid occluding the blood supply to the duodenal segment. Gastric secretions are allowed to drain freely from the gastric cannula. Compounds are administered dissolved in 0.9% sodium chloride (saline) as a 1.2 ml/h infusion via a catheter inserted in a jugular vein.
The triple lumen catheter is connected as follows. […]
Lumen 2 collects the perfusate and delivers it to a flow cell containing a pH microelectrode. Outflow pH is recorded throughout the experiment. […]
A group size of 6 animals or larger is used and the effect of compounds on the output pH compared to control data determined. […]

**Q.** For `CC(C)C[C@H](NC(=O)[C@H](Cc1ccc(O)cc1)NC(=O)[C@H](CCCCN)NC(=O)[C@H](CCCCN)NC(=O)[C@@H](NC(=O)[C@H](C)N)C(C)C)C(N)=O` [Example 1, H-Ala-Val-Lys-Lys-Tyr-Leu-NH2] (H-AVKKYL-NH2), which “acid disposal (output pH compared to control)” value is on record?
**A.** significant increase in acid disposal
